From publication PMC6747525, “Chk1 Inhibitor MK-8776 Restores the Sensitivity of Chemotherapeutics in P-glycoprotein Overexpressing Cancer Cells” (International Journal of Molecular Sciences, 2019)

Assays:
P-glycoprotein (P-gp) [1] = biological target: T1, P-glycoprotein (P-gp) (Homo sapiens, UniProt P08183); test: biochemical
T1 construct: gene ABCB1

P-glycoprotein (P-gp) [2] = biological target: T1, P-glycoprotein (P-gp)

T1 sequence (P08183 whole entry): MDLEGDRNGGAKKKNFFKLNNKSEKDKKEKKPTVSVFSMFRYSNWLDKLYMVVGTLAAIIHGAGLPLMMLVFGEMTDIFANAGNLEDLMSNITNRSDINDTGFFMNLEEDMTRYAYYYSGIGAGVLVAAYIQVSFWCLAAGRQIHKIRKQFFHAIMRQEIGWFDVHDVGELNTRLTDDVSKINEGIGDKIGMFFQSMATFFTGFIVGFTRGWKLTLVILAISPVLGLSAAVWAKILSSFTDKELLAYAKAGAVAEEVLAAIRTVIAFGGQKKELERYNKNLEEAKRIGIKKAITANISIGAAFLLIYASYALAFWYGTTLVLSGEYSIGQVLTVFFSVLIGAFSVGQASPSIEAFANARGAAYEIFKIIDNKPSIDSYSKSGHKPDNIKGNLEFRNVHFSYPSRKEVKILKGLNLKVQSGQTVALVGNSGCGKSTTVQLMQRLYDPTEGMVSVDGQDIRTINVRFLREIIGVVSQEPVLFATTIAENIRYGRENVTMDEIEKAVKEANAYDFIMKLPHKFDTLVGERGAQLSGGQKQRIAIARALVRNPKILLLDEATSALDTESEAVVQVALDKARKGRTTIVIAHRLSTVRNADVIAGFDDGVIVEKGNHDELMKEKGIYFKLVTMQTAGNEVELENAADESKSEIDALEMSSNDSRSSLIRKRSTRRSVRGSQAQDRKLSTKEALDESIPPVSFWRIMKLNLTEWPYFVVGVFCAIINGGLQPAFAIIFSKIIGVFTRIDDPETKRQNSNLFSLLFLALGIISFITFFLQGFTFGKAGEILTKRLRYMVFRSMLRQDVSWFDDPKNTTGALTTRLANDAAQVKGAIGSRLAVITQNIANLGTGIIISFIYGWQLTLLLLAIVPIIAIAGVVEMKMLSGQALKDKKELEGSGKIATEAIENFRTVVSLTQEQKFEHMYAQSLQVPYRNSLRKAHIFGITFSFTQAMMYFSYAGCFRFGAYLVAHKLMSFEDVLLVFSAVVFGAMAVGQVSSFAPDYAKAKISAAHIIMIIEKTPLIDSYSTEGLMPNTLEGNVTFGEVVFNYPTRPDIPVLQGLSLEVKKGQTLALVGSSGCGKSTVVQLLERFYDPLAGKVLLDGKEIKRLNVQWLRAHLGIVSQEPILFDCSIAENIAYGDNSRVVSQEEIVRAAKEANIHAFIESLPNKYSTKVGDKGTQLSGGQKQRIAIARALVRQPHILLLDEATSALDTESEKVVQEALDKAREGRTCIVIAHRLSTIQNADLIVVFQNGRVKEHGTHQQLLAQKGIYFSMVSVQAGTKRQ

SMILES	EC50 (P-glycoprotein (P-gp) [1])	[3H]-paclitaxel accumulation and efflux in P-gp-overexpressing KB-C2 versus pare (P-glycoprotein (P-gp) [2])
Cn1cc(-c2cnn3c(N)c(Br)c([C@@H]4CCCNC4)nc23)cn1 [MK-8776]	3.8 µM	–
CC(=O)O[C@H]1C(=O)[C@@]2(C)[C@H]([C@H](OC(=O)c3ccccc3)[C@]3(O)C[C@H](OC(=O)[C@H](O)[C@@H](NC(=O)c4ccccc4)c4ccccc4)C(C)=C1C3(C)C)[C@]1(OC(C)=O)CO[C@@H]1C[C@@H]2O [paclitaxel]	–	[^3H]-paclitaxel efflux increased significantly compared with that in their parental KB-3-1 cells
